Key:
Assay in all cases: Dundee kinase panel
Type in all cases: biochemical
Details in all cases: for remaining activity at 1 µM: read-out: residual activity
OSR1 = biological target: T1, OSR1 (Homo sapiens, UniProt O95747)
T1 construct: lines 1-140) and Reaction Biology
Experimental: (§1) Compounds were screened at 1 μM. For key hits, pIC50 values were then determined by HTRF as above. […] Stability in mouse and human liver microsomes was determined by Cyprotex.

HIPK2 = biological target: T2, HIPK2 (Homo sapiens, UniProt Q9H2X6)
T2 construct: lines 1-140) and Reaction Biology
Experimental: as §1

BRSK1 = biological target: T3, BRSK1 (Homo sapiens, UniProt Q8TDC3)
T3 construct: lines 1-140) and Reaction Biology
T3 sequence (Q8TDC3 1-778): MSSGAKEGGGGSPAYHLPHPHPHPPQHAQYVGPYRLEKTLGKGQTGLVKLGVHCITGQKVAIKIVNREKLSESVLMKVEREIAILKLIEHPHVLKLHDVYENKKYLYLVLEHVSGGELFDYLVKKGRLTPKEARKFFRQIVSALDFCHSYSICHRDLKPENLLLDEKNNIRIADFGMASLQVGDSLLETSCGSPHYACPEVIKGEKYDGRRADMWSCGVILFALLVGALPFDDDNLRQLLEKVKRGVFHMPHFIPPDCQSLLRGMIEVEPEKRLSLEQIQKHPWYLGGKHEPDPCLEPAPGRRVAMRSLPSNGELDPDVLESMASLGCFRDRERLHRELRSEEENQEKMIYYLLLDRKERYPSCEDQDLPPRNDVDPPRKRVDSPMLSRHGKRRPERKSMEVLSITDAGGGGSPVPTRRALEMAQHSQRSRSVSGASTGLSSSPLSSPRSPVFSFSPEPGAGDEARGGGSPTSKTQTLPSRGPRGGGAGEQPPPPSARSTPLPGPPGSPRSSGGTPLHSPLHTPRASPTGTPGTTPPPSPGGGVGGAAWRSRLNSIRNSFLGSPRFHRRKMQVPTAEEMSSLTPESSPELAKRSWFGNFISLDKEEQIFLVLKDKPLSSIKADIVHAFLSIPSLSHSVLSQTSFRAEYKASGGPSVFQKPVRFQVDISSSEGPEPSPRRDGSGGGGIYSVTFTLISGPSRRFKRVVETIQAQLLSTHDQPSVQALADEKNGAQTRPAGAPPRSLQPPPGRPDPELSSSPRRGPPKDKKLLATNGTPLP
Experimental: as §1

JNK1 = biological target: T4, JNK1 (Homo sapiens, UniProt P45983)
T4 construct: lines 1-140) and Reaction Biology
Experimental: as §1

PKBb = biological target: T5, PKBb (Homo sapiens, UniProt P31751)
T5 construct: lines 1-140) and Reaction Biology
Experimental: as §1

IKKb = biological target: T6, IKKb (Homo sapiens, UniProt O14920)
T6 construct: lines 1-140) and Reaction Biology
T6 sequence (O14920 1-756): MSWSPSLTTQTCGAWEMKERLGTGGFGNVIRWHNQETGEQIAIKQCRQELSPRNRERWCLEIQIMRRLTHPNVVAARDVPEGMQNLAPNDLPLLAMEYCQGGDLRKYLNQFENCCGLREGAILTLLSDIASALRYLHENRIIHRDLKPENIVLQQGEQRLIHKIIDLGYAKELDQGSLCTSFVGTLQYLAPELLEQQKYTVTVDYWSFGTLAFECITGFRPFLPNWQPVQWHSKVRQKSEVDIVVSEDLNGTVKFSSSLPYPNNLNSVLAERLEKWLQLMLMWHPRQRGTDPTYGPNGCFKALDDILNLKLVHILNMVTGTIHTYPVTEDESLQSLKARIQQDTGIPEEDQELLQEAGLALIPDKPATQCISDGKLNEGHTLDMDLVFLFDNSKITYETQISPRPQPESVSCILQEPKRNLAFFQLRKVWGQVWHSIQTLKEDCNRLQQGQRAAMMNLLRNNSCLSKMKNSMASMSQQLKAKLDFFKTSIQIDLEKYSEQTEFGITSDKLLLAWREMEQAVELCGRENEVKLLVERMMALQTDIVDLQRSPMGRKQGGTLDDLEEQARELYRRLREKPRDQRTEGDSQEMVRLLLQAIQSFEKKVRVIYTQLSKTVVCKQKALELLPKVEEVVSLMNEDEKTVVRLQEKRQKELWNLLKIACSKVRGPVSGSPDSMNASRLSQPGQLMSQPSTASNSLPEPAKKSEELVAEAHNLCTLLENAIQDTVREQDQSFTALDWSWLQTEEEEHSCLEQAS
Experimental: as §1

RSK2 = biological target: T7, RSK2 (Homo sapiens, UniProt P51812)
T7 construct: lines 1-140) and Reaction Biology
Experimental: as §1

SYK = biological target: T8, SYK (Homo sapiens, UniProt P43405)
T8 construct: lines 1-140) and Reaction Biology
Experimental: as §1

TTBK2 = biological target: T9, TTBK2 (Homo sapiens, UniProt Q6IQ55)
T9 construct: lines 1-140) and Reaction Biology
Experimental: as §1

STK33 = biological target: T10, STK33 (Homo sapiens, UniProt Q9BYT3)
T10 construct: lines 1-140) and Reaction Biology
Experimental: as §1

EPH-A4 = biological target: T11, EPH-A4 (Homo sapiens, UniProt P54764)
T11 construct: lines 1-140) and Reaction Biology
Experimental: as §1

NEK6 = biological target: T12, NEK6 (Homo sapiens, UniProt Q9HC98)
T12 construct: lines 1-140) and Reaction Biology
Experimental: as §1

CLK2 = biological target: T13, CLK2 (Homo sapiens, UniProt P49760)
T13 construct: lines 1-140) and Reaction Biology
Experimental: as §1

ERK8 = biological target: T14, ERK8 (Homo sapiens, UniProt Q8TD08)
T14 construct: lines 1-140) and Reaction Biology
T14 sequence (Q8TD08 1-544): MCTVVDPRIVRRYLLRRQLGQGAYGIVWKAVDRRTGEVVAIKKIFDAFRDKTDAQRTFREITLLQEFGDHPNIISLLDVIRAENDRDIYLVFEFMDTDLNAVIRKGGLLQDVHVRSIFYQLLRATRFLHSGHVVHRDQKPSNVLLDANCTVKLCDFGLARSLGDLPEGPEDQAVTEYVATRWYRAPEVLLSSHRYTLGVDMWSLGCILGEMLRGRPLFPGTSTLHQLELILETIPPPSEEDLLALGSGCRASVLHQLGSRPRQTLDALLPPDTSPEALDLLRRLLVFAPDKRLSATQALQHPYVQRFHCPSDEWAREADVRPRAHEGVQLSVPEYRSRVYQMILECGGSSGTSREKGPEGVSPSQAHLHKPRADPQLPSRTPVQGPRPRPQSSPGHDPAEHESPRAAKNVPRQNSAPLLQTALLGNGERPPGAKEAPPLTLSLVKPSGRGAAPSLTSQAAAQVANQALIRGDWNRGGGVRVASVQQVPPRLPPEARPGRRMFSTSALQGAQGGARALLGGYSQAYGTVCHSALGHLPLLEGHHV
Experimental: as §1

RSK1 = biological target: T15, RSK1 (Homo sapiens, UniProt Q15418)
T15 construct: lines 1-140) and Reaction Biology
Experimental: as §1

WNK1 = biological target: T16, WNK1 (Homo sapiens, UniProt Q9H4A3)
T16 construct: lines 1-140) and Reaction Biology
Experimental: as §1

T7 sequence (P51812 whole entry): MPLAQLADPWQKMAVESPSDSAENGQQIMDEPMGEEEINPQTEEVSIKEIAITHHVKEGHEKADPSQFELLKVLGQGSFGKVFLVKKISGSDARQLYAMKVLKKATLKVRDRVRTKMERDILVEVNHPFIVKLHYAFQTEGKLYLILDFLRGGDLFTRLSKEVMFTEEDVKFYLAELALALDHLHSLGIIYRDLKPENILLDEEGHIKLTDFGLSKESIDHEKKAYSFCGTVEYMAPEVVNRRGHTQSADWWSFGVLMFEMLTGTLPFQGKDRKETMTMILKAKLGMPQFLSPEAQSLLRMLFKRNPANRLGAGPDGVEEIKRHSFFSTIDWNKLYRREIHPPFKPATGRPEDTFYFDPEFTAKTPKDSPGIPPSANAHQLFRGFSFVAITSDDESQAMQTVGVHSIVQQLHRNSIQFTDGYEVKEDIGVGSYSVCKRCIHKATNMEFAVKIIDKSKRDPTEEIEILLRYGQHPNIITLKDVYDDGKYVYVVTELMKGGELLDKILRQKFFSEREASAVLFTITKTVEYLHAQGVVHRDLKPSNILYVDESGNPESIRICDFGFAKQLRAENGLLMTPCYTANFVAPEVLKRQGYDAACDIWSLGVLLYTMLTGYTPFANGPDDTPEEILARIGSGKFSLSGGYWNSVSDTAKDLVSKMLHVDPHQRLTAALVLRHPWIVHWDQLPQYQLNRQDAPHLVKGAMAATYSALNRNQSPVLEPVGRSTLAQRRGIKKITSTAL
T1 sequence (O95747 whole entry): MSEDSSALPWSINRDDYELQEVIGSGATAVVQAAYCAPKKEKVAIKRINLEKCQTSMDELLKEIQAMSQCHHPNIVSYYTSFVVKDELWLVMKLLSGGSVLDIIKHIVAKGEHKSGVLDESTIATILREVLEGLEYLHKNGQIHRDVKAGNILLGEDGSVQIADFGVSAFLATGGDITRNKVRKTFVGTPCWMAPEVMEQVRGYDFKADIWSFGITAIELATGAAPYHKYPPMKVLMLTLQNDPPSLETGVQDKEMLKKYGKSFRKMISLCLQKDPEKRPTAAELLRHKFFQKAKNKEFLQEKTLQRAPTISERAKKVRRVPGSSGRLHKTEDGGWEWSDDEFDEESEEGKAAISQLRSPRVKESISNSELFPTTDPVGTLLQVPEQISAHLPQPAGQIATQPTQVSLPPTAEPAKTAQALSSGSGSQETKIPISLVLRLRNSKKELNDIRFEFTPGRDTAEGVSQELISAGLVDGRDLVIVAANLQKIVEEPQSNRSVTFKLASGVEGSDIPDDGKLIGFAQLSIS
T12 sequence (Q9HC98 whole entry): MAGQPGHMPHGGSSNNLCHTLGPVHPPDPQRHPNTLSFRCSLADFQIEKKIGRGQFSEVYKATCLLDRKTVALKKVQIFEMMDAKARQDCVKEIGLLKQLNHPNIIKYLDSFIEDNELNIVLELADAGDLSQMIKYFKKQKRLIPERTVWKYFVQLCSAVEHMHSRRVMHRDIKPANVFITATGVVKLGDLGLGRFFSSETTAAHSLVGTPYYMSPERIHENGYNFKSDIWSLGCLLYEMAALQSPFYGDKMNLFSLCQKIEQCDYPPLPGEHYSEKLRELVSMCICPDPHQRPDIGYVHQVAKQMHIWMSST
T11 sequence (P54764 20-986): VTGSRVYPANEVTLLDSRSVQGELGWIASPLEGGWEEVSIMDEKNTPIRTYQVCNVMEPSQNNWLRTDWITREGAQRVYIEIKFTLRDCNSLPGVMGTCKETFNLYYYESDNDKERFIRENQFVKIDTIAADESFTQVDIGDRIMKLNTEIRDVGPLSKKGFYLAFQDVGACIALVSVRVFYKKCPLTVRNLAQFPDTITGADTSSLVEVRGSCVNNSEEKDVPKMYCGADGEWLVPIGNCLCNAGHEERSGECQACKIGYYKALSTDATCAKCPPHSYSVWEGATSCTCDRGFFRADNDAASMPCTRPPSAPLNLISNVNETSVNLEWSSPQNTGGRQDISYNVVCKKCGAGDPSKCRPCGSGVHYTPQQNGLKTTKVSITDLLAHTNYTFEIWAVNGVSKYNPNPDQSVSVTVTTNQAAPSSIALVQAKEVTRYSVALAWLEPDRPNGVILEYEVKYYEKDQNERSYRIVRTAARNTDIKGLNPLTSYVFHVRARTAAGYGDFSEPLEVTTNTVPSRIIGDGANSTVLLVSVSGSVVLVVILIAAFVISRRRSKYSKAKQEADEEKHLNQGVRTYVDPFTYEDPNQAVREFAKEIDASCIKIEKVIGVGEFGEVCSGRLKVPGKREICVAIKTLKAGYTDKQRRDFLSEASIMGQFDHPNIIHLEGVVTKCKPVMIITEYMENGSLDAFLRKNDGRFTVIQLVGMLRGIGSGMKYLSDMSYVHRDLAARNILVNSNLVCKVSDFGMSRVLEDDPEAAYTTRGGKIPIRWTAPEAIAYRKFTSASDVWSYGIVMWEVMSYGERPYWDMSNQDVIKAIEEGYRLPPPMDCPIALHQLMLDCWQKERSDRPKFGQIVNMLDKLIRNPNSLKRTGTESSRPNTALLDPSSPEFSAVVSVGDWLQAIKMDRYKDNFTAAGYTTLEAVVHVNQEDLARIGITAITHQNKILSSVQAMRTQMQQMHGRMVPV
T10 sequence (Q9BYT3 whole entry): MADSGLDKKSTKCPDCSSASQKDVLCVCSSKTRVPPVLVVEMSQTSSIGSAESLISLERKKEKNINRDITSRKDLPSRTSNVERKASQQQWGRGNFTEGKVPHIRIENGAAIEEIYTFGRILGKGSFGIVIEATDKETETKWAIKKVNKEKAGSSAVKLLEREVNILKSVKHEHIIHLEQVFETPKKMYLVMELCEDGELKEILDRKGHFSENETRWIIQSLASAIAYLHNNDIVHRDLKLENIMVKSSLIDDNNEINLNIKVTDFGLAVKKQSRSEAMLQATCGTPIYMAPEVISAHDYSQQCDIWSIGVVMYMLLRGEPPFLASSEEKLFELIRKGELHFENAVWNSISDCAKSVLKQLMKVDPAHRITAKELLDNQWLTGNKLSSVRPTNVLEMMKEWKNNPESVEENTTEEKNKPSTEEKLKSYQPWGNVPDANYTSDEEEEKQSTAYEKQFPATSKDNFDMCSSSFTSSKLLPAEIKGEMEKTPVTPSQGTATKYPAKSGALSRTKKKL
T5 sequence (P31751 whole entry): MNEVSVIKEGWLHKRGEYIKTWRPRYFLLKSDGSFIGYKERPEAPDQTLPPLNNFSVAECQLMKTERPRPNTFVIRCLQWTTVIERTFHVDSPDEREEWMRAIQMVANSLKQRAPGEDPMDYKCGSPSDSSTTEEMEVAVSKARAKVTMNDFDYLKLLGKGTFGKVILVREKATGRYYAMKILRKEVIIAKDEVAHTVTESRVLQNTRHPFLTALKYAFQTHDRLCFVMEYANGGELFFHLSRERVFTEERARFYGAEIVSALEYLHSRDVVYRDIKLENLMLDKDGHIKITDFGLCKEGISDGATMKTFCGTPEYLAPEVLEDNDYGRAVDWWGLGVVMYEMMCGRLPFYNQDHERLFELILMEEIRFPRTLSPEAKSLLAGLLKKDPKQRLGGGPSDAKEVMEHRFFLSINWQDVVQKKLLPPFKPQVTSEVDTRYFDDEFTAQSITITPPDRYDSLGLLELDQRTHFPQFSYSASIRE
T13 sequence (P49760 whole entry): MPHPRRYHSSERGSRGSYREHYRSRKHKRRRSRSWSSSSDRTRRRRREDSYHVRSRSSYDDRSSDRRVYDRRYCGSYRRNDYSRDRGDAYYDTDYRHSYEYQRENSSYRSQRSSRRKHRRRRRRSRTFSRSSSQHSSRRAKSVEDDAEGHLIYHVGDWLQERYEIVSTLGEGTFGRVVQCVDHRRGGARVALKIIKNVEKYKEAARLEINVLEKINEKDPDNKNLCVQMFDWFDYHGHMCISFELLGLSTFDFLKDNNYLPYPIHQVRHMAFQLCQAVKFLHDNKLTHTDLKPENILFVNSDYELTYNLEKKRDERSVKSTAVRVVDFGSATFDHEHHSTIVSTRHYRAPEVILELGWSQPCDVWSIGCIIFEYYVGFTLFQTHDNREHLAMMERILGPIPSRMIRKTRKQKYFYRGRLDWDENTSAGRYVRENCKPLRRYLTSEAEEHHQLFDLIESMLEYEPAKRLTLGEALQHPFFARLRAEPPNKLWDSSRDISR
T4 sequence (P45983 whole entry): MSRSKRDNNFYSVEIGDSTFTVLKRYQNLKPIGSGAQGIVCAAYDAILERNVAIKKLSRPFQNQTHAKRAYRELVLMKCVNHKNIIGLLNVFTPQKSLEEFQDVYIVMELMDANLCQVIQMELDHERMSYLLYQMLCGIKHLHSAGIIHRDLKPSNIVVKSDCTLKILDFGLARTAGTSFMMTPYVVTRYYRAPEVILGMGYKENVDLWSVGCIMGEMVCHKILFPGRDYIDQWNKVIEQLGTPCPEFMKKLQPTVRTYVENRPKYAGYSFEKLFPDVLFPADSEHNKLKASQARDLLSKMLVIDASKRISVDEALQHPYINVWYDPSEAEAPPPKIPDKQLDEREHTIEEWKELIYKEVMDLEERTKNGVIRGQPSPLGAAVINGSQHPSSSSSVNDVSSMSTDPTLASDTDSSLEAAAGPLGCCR

Structure (SMILES)	remaining activity at 1 µM (OSR1) [%]	remaining activity at 1 µM (HIPK2) [%]	remaining activity at 1 µM (BRSK1) [%]	remaining activity at 1 µM (JNK1) [%]	remaining activity at 1 µM (PKBb) [%]	remaining activity at 1 µM (IKKb) [%]	remaining activity at 1 µM (RSK2) [%]	remaining activity at 1 µM (SYK) [%]	remaining activity at 1 µM (TTBK2) [%]	remaining activity at 1 µM (STK33) [%]	remaining activity at 1 µM (EPH-A4) [%]	remaining activity at 1 µM (NEK6) [%]	remaining activity at 1 µM (CLK2) [%]	remaining activity at 1 µM (ERK8) [%]	remaining activity at 1 µM (RSK1) [%]	remaining activity at 1 µM (WNK1) [%]	other results
O=C1Nc2ccc(I)cc2/C1=C/c1cc(Br)c(O)c(Br)c1 [GW5074]	24	134	68	70	69	73	49	72	83	71	91	82	53	35	32	94	–
Oc1ncnc2c1c(-c1ccccc1)cn2-c1ccccc1 [F1386-0303, 5,7-diphenyl-7H-pyrrolo[2,3-d]pyrimidin-4-ol]	102	87	84	99	95	102	114	112	99	99	92	128	94	109	89	109	–
O=C1Cc2c([nH]c3ccc(Br)cc23)-c2ccccc2N1 [Kenpaullone]	52	103	55	100	106	103	–	87	95	92	96	99	109	46	84	92	–
COCCOc1ccc(-c2cn(-c3ccccc3)c3nc[nH]c(=O)c23)cc1 [DMX-5804, 5-[4-(2-methoxy-ethoxy)-phenyl]-7-phenyl-3,7-dihydro-pyrrolo[2,3-d]pyrimidin-4-one]	128	102	97	122	116	107	93	96	108	97	105	101	73	110	86	106	–
Nc1ncc(C(=O)NC2CN(C(=O)C3CC3)C2)c2ccc(-c3cccc(F)c3)nc12 [GNE-495]	–	–	–	–	–	–	–	–	–	–	–	–	–	–	–	–	residual activity (OSR1; 1 μM): 109%; residual activity (HIPK2; 1 μM): 96%; residual activity (BRSK1; 1 μM): 71%; residual activity (JNK1; 1 μM): 63%; residual activity (PKBb; 1 μM): 99%; residual activity (IKKb; 1 μM): 88%; residual activity (RSK2; 1 μM): 62%; residual activity (SYK; 1 μM): 94%; residual activity (TTBK2; 1 μM): 116%; residual activity (STK33; 1 μM): 94%; residual activity (EPH-A4; 1 μM): 72%; residual activity (NEK6; 1 μM): 111%; residual activity (CLK2; 1 μM): 87%; residual activity (ERK8; 1 μM): 95%; residual activity (RSK1; 1 μM): 65%; residual activity (WNK1; 1 μM): 102%

— article PMC6458995, “MAP4K4 Inhibition Promotes Survival of Human Stem Cell-Derived Cardiomyocytes and Reduces Infarct Size In Vivo” (Cell Stem Cell, 2019)
